Assay results reported in PubChem BioAssay (NCI).
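Each compound was tested at five concentrations against cells in 96-well plates for 48 hours. TGI: total growth inhibition.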

Assays:
Assay in all cases: NCI tumour cell line growth inhibition, 48 h
786-0 renal = system: 786-0 renal
A498 renal = system: A498 renal
A549 NSCLC = system: A549 NSCLC
ACHN renal = system: ACHN renal
BT-549 breast = system: BT-549 breast
CAKI-1 renal = system: CAKI-1 renal
CCRF-CEM leukemia = system: CCRF-CEM leukemia
COLO 205 colon = system: COLO 205 colon
DLD-1 colon = system: DLD-1 colon
DMS 114 small cell lung = system: DMS 114 small cell lung
DMS 273 small cell lung = system: DMS 273 small cell lung
DU-145 prostate = system: DU-145 prostate
EKVX NSCLC = system: EKVX NSCLC
HCC-2998 colon = system: HCC-2998 colon
HCT-116 colon = system: HCT-116 colon
HCT-15 colon = system: HCT-15 colon
HL-60(TB) leukemia = system: HL-60(TB) leukemia
HOP-18 NSCLC = system: HOP-18 NSCLC
HOP-62 NSCLC = system: HOP-62 NSCLC
HOP-92 NSCLC = system: HOP-92 NSCLC
HS 578T breast = system: HS 578T breast
HT29 colon = system: HT29 colon
IGROV1 ovarian = system: IGROV1 ovarian
K-562 leukemia = system: K-562 leukemia
KM12 colon = system: KM12 colon
KM20L2 colon = system: KM20L2 colon
LOX IMVI melanoma = system: LOX IMVI melanoma
LXFL 529 NSCLC = system: LXFL 529 NSCLC
M14 melanoma = system: M14 melanoma
M19-MEL melanoma = system: M19-MEL melanoma
MALME-3M melanoma = system: MALME-3M melanoma
MCF7 breast = system: MCF7 breast
MDA-MB-231 breast = system: MDA-MB-231 breast
MDA-MB-435 = system: MDA-MB-435
MDA-N = system: MDA-N
MOLT-4 leukemia = system: MOLT-4 leukemia
NCI-H226 lung = system: NCI-H226 lung
NCI-H23 lung = system: NCI-H23 lung
NCI-H460 lung = system: NCI-H460 lung
NCI-H522 lung = system: NCI-H522 lung
NCI/ADR-RES ovarian = system: NCI/ADR-RES ovarian
OVCAR-3 ovarian = system: OVCAR-3 ovarian
OVCAR-4 ovarian = system: OVCAR-4 ovarian
OVCAR-5 ovarian = system: OVCAR-5 ovarian
OVCAR-8 ovarian = system: OVCAR-8 ovarian
PC-3 prostate = system: PC-3 prostate
RPMI-8226 leukemia = system: RPMI-8226 leukemia
RXF 393 renal = system: RXF 393 renal
RXF-631 renal = system: RXF-631 renal
SF-268 CNS = system: SF-268 CNS
SF-295 CNS = system: SF-295 CNS
SF-539 CNS = system: SF-539 CNS
SK-MEL-2 melanoma = system: SK-MEL-2 melanoma
SK-MEL-28 melanoma = system: SK-MEL-28 melanoma
SK-MEL-5 melanoma = system: SK-MEL-5 melanoma
SK-OV-3 ovarian = system: SK-OV-3 ovarian
SN12C renal = system: SN12C renal
SNB-19 CNS = system: SNB-19 CNS
SNB-75 CNS = system: SNB-75 CNS
SNB-78 CNS = system: SNB-78 CNS
SR leukemia = system: SR leukemia
SW-620 colon = system: SW-620 colon
T-47D breast = system: T-47D breast
TK-10 renal = system: TK-10 renal
U251 CNS = system: U251 CNS
UACC-257 melanoma = system: UACC-257 melanoma
UACC-62 melanoma = system: UACC-62 melanoma
UO-31 renal = system: UO-31 renal
XF 498 CNS = system: XF 498 CNS

## CCN(CC)CCNc1ccc2nnn3c4ccc([N+](=O)[O-])cc4c(=O)c1c23
786-0 renal
  TGI: 18.5 µM
A498 renal
  TGI: 23.8 µM
A549 NSCLC
  TGI: > 53.2 µM
ACHN renal
  TGI: 55.9 µM
BT-549 breast
  TGI: > 100 µM
CAKI-1 renal
  TGI: 27.3 µM
CCRF-CEM leukemia
  TGI: 44.3 µM
COLO 205 colon
  TGI: > 100 µM
DLD-1 colon
  TGI: > 70.1 µM
DMS 114 small cell lung
  TGI: 97.3 µM
DMS 273 small cell lung
  TGI: 23.5 µM
DU-145 prostate
  TGI: > 100 µM
EKVX NSCLC
  TGI: > 89.7 µM
HCC-2998 colon
  TGI: > 100 µM
HCT-116 colon
  TGI: 19.7 µM
HCT-15 colon
  TGI: > 61 µM
HL-60(TB) leukemia
  TGI: 30.2 µM
HOP-18 NSCLC
  TGI: > 100 µM
HOP-62 NSCLC
  TGI: > 71.3 µM
HOP-92 NSCLC
  TGI: 40.6 µM
HS 578T breast
  TGI: 73.8 µM
HT29 colon
  TGI: > 55.5 µM
IGROV1 ovarian
  TGI: > 100 µM
K-562 leukemia
  TGI: 32.8 µM
KM12 colon
  TGI: > 100 µM
KM20L2 colon
  TGI: > 100 µM
LOX IMVI melanoma
  TGI: 17.9 µM
LXFL 529 NSCLC
  TGI: > 96.1 µM
M14 melanoma
  TGI: 49.7 µM
M19-MEL melanoma
  TGI: > 100 µM
MALME-3M melanoma
  TGI: 62.9 µM
MCF7 breast
  TGI: > 100 µM
MDA-MB-231 breast
  TGI: 24.4 µM
MDA-MB-435
  TGI: > 100 µM
MDA-N
  TGI: > 100 µM
MOLT-4 leukemia
  TGI: 32 µM
NCI-H226 lung
  TGI: 17 µM
NCI-H23 lung
  TGI: 98.5 µM
NCI-H460 lung
  TGI: > 26.9 µM
NCI-H522 lung
  TGI: > 100 µM
NCI/ADR-RES ovarian
  TGI: 30.7 µM
OVCAR-3 ovarian
  TGI: > 100 µM
OVCAR-4 ovarian
  TGI: 48.9 µM
OVCAR-5 ovarian
  TGI: 65.1 µM
OVCAR-8 ovarian
  TGI: 16 µM
PC-3 prostate
  TGI: > 100 µM
RPMI-8226 leukemia
  TGI: 43.1 µM
RXF 393 renal
  TGI: 18.9 µM
RXF-631 renal
  TGI: 28.2 µM
SF-268 CNS
  TGI: > 100 µM
SF-295 CNS
  TGI: > 78.4 µM
SF-539 CNS
  TGI: 14.9 µM
SK-MEL-2 melanoma
  TGI: > 71.7 µM
SK-MEL-28 melanoma
  TGI: 51.1 µM
SK-MEL-5 melanoma
  TGI: 58.7 µM
SK-OV-3 ovarian
  TGI: > 100 µM
SN12C renal
  TGI: > 83.6 µM
SNB-19 CNS
  TGI: > 100 µM
SNB-75 CNS
  TGI: 42 µM
SNB-78 CNS
  TGI: 63.8 µM
SR leukemia
  TGI: > 33.6 µM
SW-620 colon
  TGI: 27.6 µM
T-47D breast
  TGI: > 100 µM
TK-10 renal
  TGI: > 45 µM
U251 CNS
  TGI: 13 µM
UACC-257 melanoma
  TGI: > 69.4 µM
UACC-62 melanoma
  TGI: > 100 µM
UO-31 renal
  TGI: 25 µM
XF 498 CNS
  TGI: 18.3 µM
